How the values were obtained:
[1] = tested on: backcrossed turfgrass samples; test: Glyphosate resistance phenotype of backcrossed turfgrass samples; assay type: in vivo
Description: In some embodiments, the germplasm can have more than one glyphosate resistant allele. At least one of the glyphosate resistant alleles is the single nucleotide polymorphism (“SNP”) for the EPSPS gene at nt301 of SEQ. ID. NO. 1. By sequencing of the EPSPS from sensitive and resistant ryegrass biotypes the SNP was identified. A change from cytosine to thymine at this position changes the amino acid from proline to serine. The SNP at nt301 of SEQ. ID. NO. 1 can be used as a marker to identify plants that carry the allele of the resistant form of EPSPS. As shown in Table 1 and highlighted in the Examples below, a second allele can contribute to the glyphosate resistance.
Having both the first allele (the SNP) and the second allele in a plant such as, for example, a turf grass, can increase resistance to glyphosate. In some embodiments, the second allele may be attributed to glyphosate oxidoreductase (“GOX”) enzyme encoded by a GOX gene. Only one of the alleles may be needed to produce a glyphosate resistant plant such as for example, a turfgrass. In some embodiments, the second allele can be identified as the Gly-Rest 2 gene. The Gly-Rest 2 gene encodes a glyphosate resistant protein that can be identified as the Gly-Resist Protein (“GRP”) which is different from the glyphosate resistant EPSPS. To identify which plants have only the GRP protein, the following is an example of an analysis that can be useful. The plants that have been crossed with a known glyphosate resistant parent are grown. A herbicidally effective amount of glyphosate is applied to the plants. The plants that survive the application are selected and a part of the plant is then used to determine if a biomarker for glyphosate resistant EPSPS is present. An example of such an analysis is discussed in the examples below. If the biomarker is present, then the plant has at least glyphosate resistant EPSPS and may have GRP. […] A biomarker analysis for GRP can be designed and designing such an analysis is well within the knowledge of those skilled in the art.

[2] = tested on: F1 progeny of R and S lines of California rigid ryegrass; test: Glyphosate sensitivity of F1 progeny (RxS, SxR); assay type: in vivo, Lolium rigidum
Description: Cross-pollination is arranged in the greenhouse between one plant each of the R and S lines which have similar maturity. To prevent pollen contamination from un-wanted ryegrass, the plants are covered with transparent plastic. The likelihood of selfing is less than 3% as discussed in, for example, Thorogood, Perennial Ryegrass (Lolium perenne L.) in M. D. Casler and R. R. Duncan, eds. Turfgrass Biology, Genetics, and Breeding, John Wiley & Sons, Inc., pp. 75-105 (2003). About 500 seeds from both R and S plants are harvested at maturity and kept separately. F1 plants are grown and maintained similarly as previously described. The F1 progeny are evaluated for glyphosate sensitivity when the plants are 5 to 8 cm tall. Glyphosate is sprayed at 0.125×, 0.5×, 0.25×, 1×, 2×, 4×, 6×, and 8× and the spray solutions prepared and delivered as described previously. The response of 10 plants in each of two experiments to glyphosate is recorded 3 and 4 WAT.

R line of rigid ryegrass = test: Dose response study of plant injury, R line; assay type: in vivo, Lolium rigidum
Protocol: A dose response study is conducted on the R and S lines of rigid ryegrass. The rates of glyphosate applied varied from 0.125×, 0.25×, 0.5×, 1×, 2×, 4×, 6×, 8×, 10×, to 12×. The sprayed solutions and application procedures are similar to those described previously. Plants are evaluated for visual injury at 4 WAT. Data (4 WAT) from two experiments with 8 replications of each treatment are analyzed by non-linear regression and fitted to a log-logistic model:
[formula] where y is predictive of plant injury (% of control), X50=dose required to obtain 50% injury and b is the slope at X50.

[3] = tested on: R biotype of the California rigid ryegrass; test: Glyphosate drops on leaves, resistant biotype; assay type: in vivo, Lolium rigidum; conditions: three 2 µl drops on two leaves, corresponds to 1.12 kg ai ha^-1; one week after treatment; ROUNDUP ULTRA (isopropylamine salt)
Protocol: Rigid ryegrass (Lolium rigidum Gaud.) plants are collected from an almond orchard intensively treated with glyphosate since 1984. The collected plants are grown and seed produced in greenhouse. The resistant, intermediate and susceptible biotypes are selected in the first generation using 1.12, 2.24, and 3.36 kg ai ha^−1 rates of glyphosate. Further selection is continued with a high glyphosate rate (8.96 kg ai ha^−1) to select for the resistant and with the low rate (0.28 kg ai ha^−1) to select for the susceptible individuals. The resistant (R) and susceptible (S) biotypes used in this example are generated from the 5th and 4th cycle, respectively.
R and S biotypes of the California rigid ryegrass are grown individually to the fully vegetatively mature stage prior to seedhead formation. In one experiment, two fully mature leaves of each plant (one R and one S biotypes) are treated with three 2 μl drops of glyphosate (glyphosate isopropylamine salt, ROUNDUP ULTRA™, Monsanto Co., St. Louis, Mo.) solution applied to the upper leaf surface. This corresponds to a field rate of 1.12 kg ai ha^−1 glyphosate at a volume of 187 L ha^−1 and pressure of 172.5 kPa. One week after treatment, the S biotype is dead, but no injury is observed on the R biotype.

## O=C(O)CNCP(=O)(O)O [glyphosate, N-(phosphonomethyl) glycine]
[1]; sample 1 S control, SNP No
  Phenotype (Dead): 1X
[1]; sample 2 R control, SNP Yes
  Phenotype (Dead): 8X
[1]; sample 3, SNP No
  Phenotype (Dead): 2X
[1]; sample 4, SNP Yes
  Phenotype (Dead): 2X
[1]; sample 5, SNP Yes
  Phenotype (Dead): 8X
[1]; sample 6, SNP No
  Phenotype (Dead): 1X
[1]; sample 7, SNP No
  Phenotype (Dead): 4X
[1]; sample 8, SNP No
  Phenotype (Dead): 1X
[1]; sample 9, SNP Yes
  Phenotype (Dead): 4X
[1]; sample 10, SNP No
  Phenotype (Dead): 4X
[1]; sample 11, SNP Yes
  Phenotype (Dead): 4X
[1]; sample 12, SNP Yes
  Phenotype (Dead): 4X
[1]; sample 13, SNP No
  Phenotype (Dead): 1X
[1]; sample 14, SNP No
  Phenotype (Dead): 2X
[1]; sample 15, SNP Yes
  Phenotype (Dead): 4X
[1]; sample 16, SNP Yes
  Phenotype (Dead): 4X
[1]; sample 17, SNP Yes
  Phenotype (Dead): 6X
[1]; sample 18, SNP Yes
  Phenotype (Dead): 2X
[1]; sample 19, SNP No
  Phenotype (Dead): 4X
[1]; sample 20, SNP No
  Phenotype (Dead): 4X
[1]; sample 21, SNP No
  Phenotype (Dead): 4X
[1]; sample 22 S control, SNP No
  Phenotype (Dead): 1X
[1]; sample 23 R control, SNP Yes
  Phenotype (Dead): 8X
[2]; 2× glyphosate, 4 WAT
  injury: 20-30%
[2]; 2× glyphosate, after 5 weeks
  recovery from injury: full recovery
[2]; F1 progeny (RxS) and (SxR)
  highest glyphosate rate survived: up to 2 ×
[2]; glyphosate at 4× and higher rates
  effect on F1 plants: killed
R line of rigid ryegrass; R biotype, 8× glyphosate
  survival: survived
R line of rigid ryegrass; R line versus S line, 4 WAT
  ratio of glyphosate rates between the R and S lines for 50% injury: > 100 fold
R line of rigid ryegrass; R line, visual injury 4 WAT, 1× = 1.12 kg ai ha^-1
  glyphosate rate for 50% injury: 11 ×
[3]
  Plant injury: no injury

— patent US7906709B2, “Methods for breeding glyphosate resistant plants and compositions thereof” (priority 2006, dated 2011)
